Legend:
Type in all cases: biochemical
Itk = biological target: T1, Itk (Homo sapiens, UniProt Q08881); experiment: ITK Inhibition Assay (Radiometric), radioactive-phosphate incorporation; details: enzyme inhibition data (Ki), Table 11; radiometric or UV assay not stated
T1 sequence (Q08881 1-620): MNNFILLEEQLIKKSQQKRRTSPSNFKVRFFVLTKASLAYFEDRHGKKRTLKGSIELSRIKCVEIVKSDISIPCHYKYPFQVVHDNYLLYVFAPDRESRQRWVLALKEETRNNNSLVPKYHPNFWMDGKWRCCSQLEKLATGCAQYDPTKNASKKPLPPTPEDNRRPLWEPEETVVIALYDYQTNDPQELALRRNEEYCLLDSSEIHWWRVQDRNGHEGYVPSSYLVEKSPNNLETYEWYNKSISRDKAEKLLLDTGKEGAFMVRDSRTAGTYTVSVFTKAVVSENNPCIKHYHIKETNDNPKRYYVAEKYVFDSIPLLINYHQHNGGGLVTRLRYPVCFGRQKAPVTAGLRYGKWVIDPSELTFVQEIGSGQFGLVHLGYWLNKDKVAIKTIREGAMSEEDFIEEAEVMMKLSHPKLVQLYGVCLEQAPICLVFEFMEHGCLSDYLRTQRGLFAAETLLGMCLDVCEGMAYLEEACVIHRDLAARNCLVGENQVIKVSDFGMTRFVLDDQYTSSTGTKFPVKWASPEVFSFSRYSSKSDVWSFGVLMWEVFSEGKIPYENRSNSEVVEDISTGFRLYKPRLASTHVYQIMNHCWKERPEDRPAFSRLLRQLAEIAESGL
Procedure, shortened: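 Radiometric 33P incorporation into SAM68 peptide (D332-443) with filter capture and scintillation counting; 10 min pre-incubation then 10 min reaction at 25° C. IC50 format: 30 nM Itk, 15 μM ATP, 2 μM peptide, HEPES pH 7.5. Ki(app) format: 50 nM Itk, 7.5 μM ATP, 3 μM peptide, MOPS pH 7.0.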

JAK3 = biological target: T2, JAK3 (Homo sapiens, UniProt P52333); experiment: JAK3 Inhibition Assay, 33P incorporation; details: enzyme inhibition data (Ki), Table 11
T2 sequence (P52333 1-1124): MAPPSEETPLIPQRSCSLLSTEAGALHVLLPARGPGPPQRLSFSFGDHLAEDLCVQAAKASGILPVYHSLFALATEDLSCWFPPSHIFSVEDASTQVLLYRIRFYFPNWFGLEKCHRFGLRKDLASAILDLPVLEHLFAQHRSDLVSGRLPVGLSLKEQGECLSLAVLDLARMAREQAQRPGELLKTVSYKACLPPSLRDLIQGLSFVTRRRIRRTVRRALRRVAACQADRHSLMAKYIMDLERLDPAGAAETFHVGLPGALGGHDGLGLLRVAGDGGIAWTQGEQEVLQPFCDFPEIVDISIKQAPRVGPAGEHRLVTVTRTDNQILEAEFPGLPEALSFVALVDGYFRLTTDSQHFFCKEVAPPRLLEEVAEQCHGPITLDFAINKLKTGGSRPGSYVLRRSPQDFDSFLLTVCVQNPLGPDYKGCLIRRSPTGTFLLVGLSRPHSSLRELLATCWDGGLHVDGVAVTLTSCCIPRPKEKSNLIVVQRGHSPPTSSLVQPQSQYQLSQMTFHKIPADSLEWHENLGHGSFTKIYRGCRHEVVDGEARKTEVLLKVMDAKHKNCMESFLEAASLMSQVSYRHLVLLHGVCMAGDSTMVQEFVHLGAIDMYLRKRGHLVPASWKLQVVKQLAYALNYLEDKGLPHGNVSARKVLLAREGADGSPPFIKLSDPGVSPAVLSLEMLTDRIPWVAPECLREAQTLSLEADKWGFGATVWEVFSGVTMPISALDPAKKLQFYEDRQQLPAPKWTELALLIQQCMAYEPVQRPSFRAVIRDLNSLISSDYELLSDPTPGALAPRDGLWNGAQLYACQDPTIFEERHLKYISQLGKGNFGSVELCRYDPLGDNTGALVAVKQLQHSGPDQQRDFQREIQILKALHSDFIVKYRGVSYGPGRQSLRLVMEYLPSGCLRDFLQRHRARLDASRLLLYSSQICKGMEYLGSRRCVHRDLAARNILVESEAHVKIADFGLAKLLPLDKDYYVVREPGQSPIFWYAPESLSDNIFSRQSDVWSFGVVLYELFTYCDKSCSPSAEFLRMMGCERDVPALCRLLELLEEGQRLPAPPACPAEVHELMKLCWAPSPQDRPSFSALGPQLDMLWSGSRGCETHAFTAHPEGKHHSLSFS
Procedure, shortened: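 Recombinant JAK3 at 1 nM in HEPES pH 7.4 buffer with 10 mM MgCl2, 1 mM DTT and 0.01% BSA. Substrates were 5 μM ATP (200 uCi/μmole) and 1 μM poly(Glu)4Tyr, reacted 20 min at 25 °C. Stopped with TCA, and 33P incorporation counted on glass fiber filters.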

c-Met = c-Met (Homo sapiens, UniProt P08581); experiment: c-Met Inhibition Assay, coupled enzyme system; details: enzyme inhibition data (Ki), Table 11
Procedure, shortened: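 Pyruvate kinase/lactate dehydrogenase-coupled NADH assay in HEPES pH 7.5 with 80 nM c-Met, 200 μM ATP and 10 μM polyGluTyr at 30° C. Compound (0.006–12.5 μM final, 12-point) preincubated 10 min before ATP start; rates over 10 min gave Ki.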

c-Met, sequence (P08581 25-1390): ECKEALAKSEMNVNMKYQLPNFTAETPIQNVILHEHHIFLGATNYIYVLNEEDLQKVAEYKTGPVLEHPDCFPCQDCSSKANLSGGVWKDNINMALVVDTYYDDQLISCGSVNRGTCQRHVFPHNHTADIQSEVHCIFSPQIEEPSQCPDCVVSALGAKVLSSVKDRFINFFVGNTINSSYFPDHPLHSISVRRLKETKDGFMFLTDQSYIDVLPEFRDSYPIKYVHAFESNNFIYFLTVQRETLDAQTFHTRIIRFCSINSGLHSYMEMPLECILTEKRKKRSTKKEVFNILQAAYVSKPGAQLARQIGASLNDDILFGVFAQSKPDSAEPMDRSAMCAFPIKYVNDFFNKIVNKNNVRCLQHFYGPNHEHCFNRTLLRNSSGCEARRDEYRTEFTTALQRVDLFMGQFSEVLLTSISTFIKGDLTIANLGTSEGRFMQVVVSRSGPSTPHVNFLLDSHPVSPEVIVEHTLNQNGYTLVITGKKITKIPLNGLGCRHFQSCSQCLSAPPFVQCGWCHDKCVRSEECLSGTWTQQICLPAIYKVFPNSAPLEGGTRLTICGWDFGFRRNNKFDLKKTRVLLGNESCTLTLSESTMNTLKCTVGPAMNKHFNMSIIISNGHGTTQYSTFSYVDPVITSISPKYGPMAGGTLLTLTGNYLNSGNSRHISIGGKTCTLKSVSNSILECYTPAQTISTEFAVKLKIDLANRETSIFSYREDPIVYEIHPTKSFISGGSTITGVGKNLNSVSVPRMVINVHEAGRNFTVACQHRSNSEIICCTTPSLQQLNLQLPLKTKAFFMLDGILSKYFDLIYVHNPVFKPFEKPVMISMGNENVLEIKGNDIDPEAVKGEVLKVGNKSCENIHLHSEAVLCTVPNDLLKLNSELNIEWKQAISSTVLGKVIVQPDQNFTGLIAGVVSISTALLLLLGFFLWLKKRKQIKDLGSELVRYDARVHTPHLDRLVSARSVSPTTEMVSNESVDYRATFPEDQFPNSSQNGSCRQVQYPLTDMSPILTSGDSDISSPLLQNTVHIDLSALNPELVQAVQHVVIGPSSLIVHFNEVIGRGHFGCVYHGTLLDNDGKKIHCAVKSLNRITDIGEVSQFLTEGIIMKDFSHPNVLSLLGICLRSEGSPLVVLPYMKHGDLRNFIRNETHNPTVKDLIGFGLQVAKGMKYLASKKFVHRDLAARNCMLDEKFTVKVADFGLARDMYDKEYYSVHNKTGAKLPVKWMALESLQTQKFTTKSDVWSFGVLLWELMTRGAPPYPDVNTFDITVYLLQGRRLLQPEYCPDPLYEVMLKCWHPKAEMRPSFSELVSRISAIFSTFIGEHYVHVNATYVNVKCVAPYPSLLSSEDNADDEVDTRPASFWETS

Structure (SMILES)	Ki (Itk) [µM]	Ki (JAK3) [µM]	Ki (c-Met) [µM]
Nc1nn2cc(CCCN3CCNCC3)cnc2c1-c1ccccn1 [Compound V-314]	0.5 to 5	> 5	0.5 to 5
Nc1nn2cc(-c3ccccc3C=O)cnc2c1-c1ccccn1 [Compound V-12]	0.5 to 5	> 5	0.5 to 5
Nc1nn2cc(-c3ccccc3-c3ccccc3)cnc2c1-c1ccccn1 [Compound V-15]	0.5 to 5	> 5	0.5 to 5
Nc1nn2cc(-c3cccc(C(=O)N4CCC(CCO)CC4)n3)cnc2c1-c1ccccn1 [Compound V-141]	0.5 to 5	> 5	< 0.5
COc1ccc(-c2cnc3c([N+](=O)[O-])c(N)nn3c2)cc1 [Compound V-239]	0.5 to 5	> 5	0.5 to 5
Nc1nn2cc(-c3ccncc3)cnc2c1-c1cccc(Br)n1 [Compound V-137]	0.5 to 5	> 5	0.5 to 5
Cc1cnc2c(-c3cc(N4CCC(c5ccccc5)C4)ncn3)c(N)nn2c1 (stereo not drawn) [Compound V-303]	0.5 to 5	0.5 to 5	0.5 to 5
Nc1nn2cc(-c3ccc(N4CCN(CCO)CC4)nc3)cnc2c1-c1ccccn1 [Compound V-148]	< 0.5	0.5 to 5	< 0.5
CCC(C)Nc1cc(-c2c(N)nn3cc(C)cnc23)ncn1 (stereo not drawn) [Compound V-282]	0.5 to 5	0.5 to 5	< 0.5
CC[C@H](CO)Nc1cc(-c2c(N)nn3cc(C)cnc23)ncn1 [Compound V-287]	0.5 to 5	0.5 to 5	< 0.5
Nc1nn2cc(-c3ccnc(NCCCC4=NCC=N4)c3)cnc2c1-c1ccccn1 [Compound V-250]	< 0.5	0.5 to 5	< 0.5
Cc1cnc2c(-c3cc(NC(C)CO)ncn3)c(N)nn2c1 (stereo not drawn) [Compound V-283]	0.5 to 5	0.5 to 5	0.5 to 5
CC(=O)c1ccccc1-c1cnc2c(-c3ccccn3)c(N)nn2c1 [Compound V-6]	0.5 to 5	0.5 to 5	0.5 to 5
Nc1nn2cc(-c3ccc(N4CCC(N5CCCC5)CC4)nc3)cnc2c1-c1ccccn1 [Compound V-164]	< 0.5	> 5	< 0.5
Nc1nn2cc(-c3ccnc(N4CCN(c5cnccn5)CC4)c3)cnc2c1-c1ccccn1 [Compound V-255]	0.5 to 5	> 5	0.5 to 5
COCCCNC(=O)c1cccc(-c2cnc3c(-c4ccccn4)c(N)nn3c2)n1 [Compound V-108]	0.5 to 5	> 5	< 0.5
Nc1nn2cc(NC(=O)c3ccccc3)cnc2c1-c1ccccn1 [Compound V-235]	0.5 to 5	> 5	0.5 to 5
Nc1nn2cc(-c3cccnc3N3CCCC3)cnc2c1-c1ccccn1 [Compound V-258]	0.5 to 5	> 5	0.5 to 5
Cc1ccccc1-c1cnc2c(-c3ccccn3)c(N)nn2c1 [Compound V-7]	0.5 to 5	> 5	0.5 to 5
CCOC(=O)N1CCN(c2ccc(-c3cnc4c(-c5ccccn5)c(N)nn4c3)cn2)CC1 [Compound V-174]	0.5 to 5	> 5	0.5 to 5

Structure (SMILES)	Ki (Itk) [µM]	Ki (JAK3) [µM]	Ki (c-Met) [µM]
CCN(Cc1ccccn1)c1ncccc1-c1cnc2c(-c3ccccn3)c(N)nn2c1 [Compound V-263]	0.5 to 5	> 5	0.5 to 5
CCN(CCN)C(=O)c1cccc(-c2cnc3c(-c4ccccn4)c(N)nn3c2)n1 [Compound V-126]	0.5 to 5	> 5	< 0.5
CCN(CC)CCN(C)C(=O)c1ccc(-c2cnc3c(-c4ccccn4)c(N)nn3c2)nc1 [Compound V-88]	< 0.5	0.5 to 5	< 0.5
CCCCNC(=O)c1cccc(-c2cnc3c(-c4ccccn4)c(N)nn3c2)n1 [Compound V-109]	0.5 to 5	> 5	< 0.5
Nc1nn2cc(CCCN3CC[C@H](O)C3)cnc2c1-c1ccccn1 [Compound V-325]	0.5 to 5	> 5	0.5 to 5
Cc1cnc2c(-c3cc(N4CCC(S(C)(=O)=O)C4)ncn3)c(N)nn2c1 (stereo not drawn) [Compound V-308]	< 0.5	< 0.5	< 0.5
Nc1nn2cc(-c3cccnc3N3CCN(Cc4ccncc4)CC3)cnc2c1-c1ccccn1 [Compound V-264]	0.5 to 5	> 5	0.5 to 5
CCOC(=O)c1c(N)nn2cc(-c3cnccn3)cnc12 [Compound V-26]	0.5 to 5	> 5	0.5 to 5
Cc1cnc2c(-c3cc(NC4CC5CCC4C5)ncn3)c(N)nn2c1 (stereo not drawn) [Compound V-333]	< 0.5	0.5 to 5	< 0.5
CN(CCN)C(=O)c1cccc(-c2cnc3c(-c4ccccn4)c(N)nn3c2)n1 [Compound V-120]	< 0.5	0.5 to 5	< 0.5
Cc1cnc2c(-c3cc(N4CCC(NC(=O)C(F)(F)F)C4)ncn3)c(N)nn2c1 (stereo not drawn) [Compound V-343]	0.5 to 5	0.5 to 5	0.5 to 5
Nc1nn2cc(N3CCCC3)cnc2c1-c1ccccn1 [Compound V-58]	0.5 to 5	> 5	< 0.5
COCCCN1CCN(C(=O)c2cccc(-c3cnc4c(-c5ccccn5)c(N)nn4c3)n2)CC1 [Compound V-117]	0.5 to 5	> 5	< 0.5
CCCN(CCO)c1ccc(-c2cnc3c(-c4ccccn4)c(N)nn3c2)cn1 [Compound V-158]	0.5 to 5	> 5	< 0.5
Cc1cnc2c(-c3cc(N4CCCC4c4ccc(F)cc4)ncn3)c(N)nn2c1 (stereo not drawn) [Compound V-307]	0.5 to 5	0.5 to 5	< 0.5
Nc1nn2cc(-c3ccc(NCCCC4=NCC=N4)nc3)cnc2c1-c1ccccn1 [Compound V-161]	0.5 to 5	> 5	< 0.5
CS(=O)(=O)Nc1ccccc1-c1cnc2c(-c3ccccn3)c(N)nn2c1 [Compound V-16]	0.5 to 5	> 5	0.5 to 5
CCN(CCN)c1ccc(-c2cnc3c(-c4ccccn4)c(N)nn3c2)cn1 [Compound V-157]	< 0.5	> 5	< 0.5
CN(C)CCN(C)C(=O)c1ccc(-c2cnc3c(Cc4ccccc4)c(N)nn3c2)nc1 [Compound V-211]	0.5 to 5	> 5	0.5 to 5
COc1ccc(-c2cnc3c(N)c(N)nn3c2)cc1 [Compound V-240]	0.5 to 5	> 5	0.5 to 5

From patent US7528138B2, “Pyrazolo[1,5-a]pyrimidines useful as inhibitors of protein kinases” (Vertex Pharmaceuticals Incorporated, priority 2004, dated 2009)
